In ChEMBL document CHEMBL5303573, “Mapping human microbiome drug metabolism by gut bacteria and their genes” (Nature, 2019):

Assays:
[1] = The drug is tested on Providencia stuartii strain: ATCC25827 for biotransformation. The drug concentrations were measured before and after a 12-h incubation by liquid-chromatography-coupled mass spectrometry (LC–MS); details: 2 µM
[2] = bacteroides fragilis, 12 h, 2 µM
Description: The drug is tested on Bacteroides fragilis strain: 3397 (T10) for biotransformation. The drug concentrations were measured before and after a 12-h incubation by liquid-chromatography-coupled mass spectrometry (LC–MS)

[3] = The drug is tested on Bacteroides xylanisolvens strain: DSM18836 for biotransformation. The drug concentrations were measured before and after a 12-h incubation by liquid-chromatography-coupled mass spectrometry (LC–MS); details: 2 µM
[4] = The drug is tested on Ruminococcus gnavus strain: ATCC29149 for biotransformation. The drug concentrations were measured before and after a 12-h incubation by liquid-chromatography-coupled mass spectrometry (LC–MS); details: mediterraneibacter gnavus, 2 µM
[5] = The drug is tested on Blautia hansenii strain: DSM20583 for biotransformation. The drug concentrations were measured before and after a 12-h incubation by liquid-chromatography-coupled mass spectrometry (LC–MS); details: 2 µM
[6] = The drug is tested on Collinsella intestinalis strain: DSM13280 for biotransformation. The drug concentrations were measured before and after a 12-h incubation by liquid-chromatography-coupled mass spectrometry (LC–MS); details: 2 µM
[7] = bacteroides stercoris, 12 h, 2 µM
Description: The drug is tested on Bacteroides stercoris strain: ATCC43183 for biotransformation. The drug concentrations were measured before and after a 12-h incubation by liquid-chromatography-coupled mass spectrometry (LC–MS)

[8] = The drug is tested on Escherichia coli strain: BW25113 for biotransformation. The drug concentrations were measured before and after a 12-h incubation by liquid-chromatography-coupled mass spectrometry (LC–MS); details: 2 µM
[9] = The drug is tested on Bifidobacterium longum subsp. Infantis strain: CCUG52486 for biotransformation. The drug concentrations were measured before and after a 12-h incubation by liquid-chromatography-coupled mass spectrometry (LC–MS); details: 2 µM
[10] = The drug is tested on Providencia rettgeri strain: DSM1131 for biotransformation. The drug concentrations were measured before and after a 12-h incubation by liquid-chromatography-coupled mass spectrometry (LC–MS); type: ADME; parameters: dose 2 uM, timepoint 0 vs 12 hours; details: 2 µM
[11] = The drug is tested on Bacteroides cellulosilyticus strain: DSM14838 for biotransformation. The drug concentrations were measured before and after a 12-h incubation by liquid-chromatography-coupled mass spectrometry (LC–MS); details: 2 µM
[12] = The drug is tested on Subdoligranulum variabile strain: DSM15176 for biotransformation. The drug concentrations were measured before and after a 12-h incubation by liquid-chromatography-coupled mass spectrometry (LC–MS); details: 2 µM
[13] = The drug is tested on Bacteroides pectinophilus strain: ATCC43243 for biotransformation. The drug concentrations were measured before and after a 12-h incubation by liquid-chromatography-coupled mass spectrometry (LC–MS); details: 2 µM
[14] = bacteroides intestinalis, 12 h, 2 µM
Description: The drug is tested on Bacteroides intestinalis strain: DSM17393 for biotransformation. The drug concentrations were measured before and after a 12-h incubation by liquid-chromatography-coupled mass spectrometry (LC–MS)

[15] = The drug is tested on Bacteroides sp. WH2 strain: WH2 for biotransformation. The drug concentrations were measured before and after a 12-h incubation by liquid-chromatography-coupled mass spectrometry (LC–MS); details: bacteroides sp. wh2, 12 h, 2 µM
[16] = The drug is tested on Bacteroides coprophilus strain: DSM18228 for biotransformation. The drug concentrations were measured before and after a 12-h incubation by liquid-chromatography-coupled mass spectrometry (LC–MS); details: 2 µM
[17] = bacteroides fragilis, 12 h, 2 µM; remark: listed apart in the source
Description: The drug is tested on Bacteroides fragilis strain: DS-208 for biotransformation. The drug concentrations were measured before and after a 12-h incubation by liquid-chromatography-coupled mass spectrometry (LC–MS)

[18] = The drug is tested on Bacteroides uniformis strain: ATCC8492 for biotransformation. The drug concentrations were measured before and after a 12-h incubation by liquid-chromatography-coupled mass spectrometry (LC–MS); details: 2 µM
[19] = The drug is tested on Bacteroides dorei strain: DSM17855 for biotransformation. The drug concentrations were measured before and after a 12-h incubation by liquid-chromatography-coupled mass spectrometry (LC–MS); details: phocaeicola dorei, 2 µM
[20] = The drug is tested on Bifidobacterium ruminantium strain: fecal isolate for biotransformation. The drug concentrations were measured before and after a 12-h incubation by liquid-chromatography-coupled mass spectrometry (LC–MS); details: 2 µM

Row | SMILES | Bacterial Biotransformation [1] | Bacterial Biotransformation [2] | Bacterial Biotransformation [3] | Bacterial Biotransformation [4] | Bacterial Biotransformation [5] | Bacterial Biotransformation [6] | Bacterial Biotransformation [7] | Bacterial Biotransformation [8] | Bacterial Biotransformation [9] | Bacterial Biotransformation [10] | Bacterial Biotransformation [11] | Bacterial Biotransformation [12] | Bacterial Biotransformation [13] | Bacterial Biotransformation [14] | Bacterial Biotransformation [15] | Bacterial Biotransformation [16] | Bacterial Biotransformation [17] | Bacterial Biotransformation [18] | Bacterial Biotransformation [19] | Bacterial Biotransformation [20]
1 | COc1ccc(/C=C/C(=O)Nc2ccccc2C(=O)O)cc1OC | Compound NOT metabolized | Compound NOT metabolized | Compound NOT metabolized | Compound NOT metabolized | Compound NOT metabolized | Compound NOT metabolized | Compound NOT metabolized | Compound NOT metabolized | Compound NOT metabolized | Compound NOT metabolized | Compound NOT metabolized | Compound NOT metabolized | Compound NOT metabolized | Compound NOT metabolized | Compound metabolized | Compound NOT metabolized | Compound NOT metabolized | Compound NOT metabolized | Compound NOT metabolized | –
2 | CCCCC(=O)O[C@]1(C(=O)CO)[C@@H](C)C[C@H]2[C@@H]3CCC4=CC(=O)C=C[C@]4(C)[C@@]3(F)[C@@H](O)C[C@@]21C [BETAMETHASONE VALERATE] | Compound NOT metabolized | – | Compound metabolized | – | Compound metabolized | Compound NOT metabolized | Compound metabolized | Compound metabolized | – | Compound NOT metabolized | Compound NOT metabolized | Compound metabolized | Compound NOT metabolized | – | Compound NOT metabolized | – | Compound metabolized | Compound metabolized | Compound metabolized | Compound NOT metabolized
3 | COc1c2occc2cc2ccc(=O)oc12 [METHOXSALEN] | – | – | Compound metabolized | Compound metabolized | Compound metabolized | – | – | Compound NOT metabolized | – | Compound NOT metabolized | Compound metabolized | Compound NOT metabolized | Compound NOT metabolized | Compound metabolized | – | – | – | Compound metabolized | Compound metabolized | Compound NOT metabolized
4 | CCC(=O)NCC[C@@H]1CCc2ccc3c(c21)CCO3 [RAMELTEON] | – | – | Compound metabolized | Compound NOT metabolized | Compound metabolized | Compound NOT metabolized | Compound metabolized | Compound NOT metabolized | Compound NOT metabolized | Compound NOT metabolized | Compound NOT metabolized | Compound NOT metabolized | Compound NOT metabolized | – | Compound NOT metabolized | Compound NOT metabolized | Compound metabolized | Compound metabolized | Compound metabolized | Compound NOT metabolized
